Results from patent US20230093861A1, “RAPAMYCIN ANALOGS AS MTOR INHIBITORS” (Revolution Medicines, Inc., priority 2017, published 2023).

How the values were obtained:
[1] = tested on: P-P70S6K (T389); test: Cell based AlphaLISA assay, inhibition of P-P70S6K (T389) (mTORC1 substrate phosphorylation) in MDA-MB-468 cells; details: Homo sapiens, 4 h, AlphaLISA, two to four hours at 37° C., read-out: pIC50 for Inhibition of mTORC1 and mTORC2 Substrate Phosphorylation, P-P70S6K-(T389) (converted)
Experimental: (§1) Cell Based AlphaLISA Assays for Determining IC50 for Inhibition of P-Akt (S473), P-4E-BP1 (T37/46), and P-P70S6K (T389) in MDA-MB-468 Cells
(§2) mTOR Kinase Cellular Assay
(§3) To measure functional activity of mTORC1 and mTORC2 in cells the phosphorylation of 4EBP1 (Thr37/46) and P70S6K (Thr389), and AKT1/2/3 (Ser473) was monitored using AlphaLisa SureFire Ultra Kits (Perkin Elmer). […] Incubations were terminated by removal of the assay buffer and addition of lysis buffer provided with the assay kit. Samples were processed according to the manufacturer's instructions. The Alpha signal from the respective phosphoproteins was measured in duplicate using a microplate reader (Envision, Perkin-Elmer or Spectramax M5, Molecular Devices). Inhibitor concentration response curves were analyzed using normalized IC50 regression curve fitting with control based normalization.

[2] = tested on: P-Akt (S473); test: Cell based AlphaLISA assay, inhibition of P-Akt (S473) (mTORC2 substrate phosphorylation) in MDA-MB-468 cells; details: Homo sapiens, MDA-MB-468, 4 h, AlphaLISA, two to four hours at 37° C., read-out: pIC50 for Inhibition of mTORC1 and mTORC2 Substrate Phosphorylation, p-AKT 1/2/3 -(S473) (converted)
Experimental: as §1, §2, §3

[3] = tested on: P-4E-BP1 (T37/46); test: Cell based AlphaLISA assay, inhibition of P-4E-BP1 (T37/46) (mTORC1 substrate phosphorylation) in MDA-MB-468 cells; details: Homo sapiens, MDA-MB-468, 4 h, AlphaLISA, two to four hours at 37° C., read-out: pIC50 for Inhibition of mTORC1 and mTORC2 Substrate Phosphorylation, P-4E-BP1-(T37/46) (converted)
Experimental: as §1, §2, §3

SMILES | IC50 [1] [nM] | IC50 [2] [nM] | IC50 [3] [nM]
CO[C@H]1C[C@@H]2CC[C@@H](C)[C@@](O)(O2)C(=O)C(=O)N2CCCC[C@H]2C(=O)O[C@H]([C@H](C)C[C@@H]2CC[C@H](n3nncc3-c3cccc(-c4cnc(N5CCN(Cc6cn(CCOCCOCCOCCOCCOCCC(=O)NCCCCn7nc(-c8ccc9oc(N)nc9c8)c8c(N)ncnc87)nn6)CC5)nc4)c3)[C@H](OC)C2)CC(=O)[C@H](C)/C=C(\C)[C@@H](O)[C@@H](OC)C(=O)[C@H](C)C[C@H](C)/C=C/C=C/C=C/1C [Example 29] | < 1 | 3.16 to 31.6 | < 3.16
CO[C@H]1C[C@@H]2CC[C@@H](C)[C@@](O)(O2)C(=O)C(=O)N2CCCC[C@H]2C(=O)O[C@H]([C@H](C)C[C@@H]2CC[C@H](n3nncc3-c3cccc(-c4cnc(N5CCN(Cc6cn(CCOCCOCCOCCOCCC(=O)NCCCCn7nc(-c8ccc9oc(N)nc9c8)c8c(N)ncnc87)nn6)CC5)nc4)c3)[C@H](OC)C2)CC(=O)[C@H](C)/C=C(\C)[C@@H](O)[C@@H](OC)C(=O)[C@H](C)C[C@H](C)/C=C/C=C/C=C/1C [Example 30] | < 1 | 3.16 to 31.6 | < 3.16
CO[C@H]1C[C@@H]2CC[C@@H](C)[C@@](O)(O2)C(=O)C(=O)N2CCCC[C@H]2C(=O)O[C@H]([C@H](C)C[C@@H]2CC[C@H](n3nncc3-c3cccc(-c4cnc(N5CCN(Cc6cn(CCOCCOCCOCCC(=O)NCCCCn7nc(-c8ccc9oc(N)nc9c8)c8c(N)ncnc87)nn6)CC5)nc4)c3)[C@H](OC)C2)CC(=O)[C@H](C)/C=C(\C)[C@@H](O)[C@@H](OC)C(=O)[C@H](C)C[C@H](C)/C=C/C=C/C=C/1C [Example 31] | < 1 | 3.16 to 31.6 | < 3.16
CO[C@H]1C[C@@H]2CC[C@@H](C)[C@@](O)(O2)C(=O)C(=O)N2CCCC[C@H]2C(=O)O[C@H]([C@H](C)C[C@@H]2CC[C@H](n3nncc3-c3cccc(-c4cnc(N5CCN(Cc6cn(CCOCCOCCOCCOCCOCCC(=O)NCCCCn7nc(-c8ccc9oc(N)nc9c8)c8c(N)ncnc87)nn6)C(CO)C5)nc4)c3)[C@H](OC)C2)CC(=O)[C@H](C)/C=C(\C)[C@@H](O)[C@@H](OC)C(=O)[C@H](C)C[C@H](C)/C=C/C=C/C=C/1C (stereo partly drawn) [Example 32] | 1 to 10 | 3.16 to 31.6 | 3.16 to 31.6
CO[C@H]1C[C@@H]2CC[C@@H](C)[C@@](O)(O2)C(=O)C(=O)N2CCCC[C@H]2C(=O)O[C@H]([C@H](C)C[C@@H]2CC[C@H](n3nncc3-c3cccc(-c4cnc(N5CCN(Cc6cn(CCOCCOCCOCCOCCC(=O)NCCCCn7nc(-c8ccc9oc(N)nc9c8)c8c(N)ncnc87)nn6)C(CO)C5)nc4)c3)[C@H](OC)C2)CC(=O)[C@H](C)/C=C(\C)[C@@H](O)[C@@H](OC)C(=O)[C@H](C)C[C@H](C)/C=C/C=C/C=C/1C (stereo partly drawn) [Example 33] | 1 to 10 | 3.16 to 31.6 | 3.16 to 31.6
CO[C@H]1C[C@@H]2CC[C@@H](C)[C@@](O)(O2)C(=O)C(=O)N2CCCC[C@H]2C(=O)O[C@H]([C@H](C)C[C@@H]2CC[C@H](n3nncc3-c3cccc(-c4cnc(N5CCN(Cc6cn(CCOCCOCCOCCC(=O)NCCCCn7nc(-c8ccc9oc(N)nc9c8)c8c(N)ncnc87)nn6)C(CO)C5)nc4)c3)[C@H](OC)C2)CC(=O)[C@H](C)/C=C(\C)[C@@H](O)[C@@H](OC)C(=O)[C@H](C)C[C@H](C)/C=C/C=C/C=C/1C (stereo partly drawn) [Example 34] | 1 to 10 | 31.6 to 1000 | 3.16 to 31.6
CO[C@H]1C[C@@H]2CC[C@@H](C)[C@@](O)(O2)C(=O)C(=O)N2CCCC[C@H]2C(=O)O[C@H]([C@H](C)C[C@@H]2CC[C@H](n3nncc3-c3cccc(-c4cnc(N5CCN(S(=O)(=O)CCc6cn(CCOCCOCCOCCC(=O)NCCCCn7nc(-c8ccc9oc(N)nc9c8)c8c(N)ncnc87)nn6)CC5)nc4)c3)[C@H](OC)C2)CC(=O)[C@H](C)/C=C(\C)[C@@H](O)[C@@H](OC)C(=O)[C@H](C)C[C@H](C)/C=C/C=C/C=C/1C [Example 35] | < 1 | 3.16 to 31.6 | < 3.16
